What was measured:
[1] = system: NB4 promyelocytic leukemia; experiment: Sulphorodamine B test at single concentration, NB4; format: cell-based; conditions: 500 nM, 72 h, suspension cells
Method: (§1) The antiproliferative activity of novel Hsp90 inhibitors was also evaluated on various cancerous cell lines by means of the sulphorodamine B test (i.e., NCI-H460 non-small cell lung carcinoma, A431 epidermoid, A2780 ovarian, MDA-MB436 triple-negative breast, U87MG glioblastoma, A498 renal, HCT116 colon, MeWo melanoma, MiaPaCa2 pancreas, HeLa cervix uteri, NB4 promyelocytic leukemia). NCI-H460, A431, MDA-MB436, A2780, A498, HeLa, NB4 tumour cells were grown in RPMI 1640 containing 10% fetal bovine serum (i.e., FBS from GIBCO), L-glutamine, and 50 μg/ml gentamycin sulfate.
(§2) All cell lines were maintained in a 37° C. incubator with saturated humidity and an atmosphere containing 95% air and 5% CO2, and were sub-cultured every 2-3 days. Tumour cells were seeded in 96-well tissue culture plates at approximately 10% confluence and were allowed to attach and recover for 24 h.
(§3) Varying concentrations of the drugs were then added to each well to calculate their IC50 value (the concentration which inhibits the 50% of cell survival). The plates were incubated at 37° C. for 72 h. At the end of the treatment, the plates were washed by remotion of the supernatant and addition of PBS 3 times. 200 μl PBS and 50 μl of cold 80% trichloroacetic acid (TCA) were added. The plates were incubated on ice for at least 1 h. TCA was removed, the plates were washed 3 times by immersion in distilled-water and dried on paper and at 40° C. for […]. Then 200 μl of 0.4% sulphorodamine B in 1% acetic acid were added. The plates were incubated at room temperature for 30 min. Sulphorodamine B was removed, the plates were washed by immersion in 1% acetic acid for 3 times, then they were dried on paper and at 40° C. for 5 min. Then, 200 μl Tris 10 mM were added, the plates were kept under stirring for 20 min. The cell survival was determined as optical density by a Multiskan […] at 540 nm. The amount of cells killed was calculated as the percentage decrease in sulphorodamine B binding compared with control cultures.
(§4) The other cell lines were screened against one single concentration of the various inhibitors (i.e., 500 nM), all experiments being made in octuplicate, following the protocol described at example 35. Since NB4 cell line was grown in suspension, a further step of centrifugation (i.e., 1600 g for 10 min) was added after the 72 hour incubation period.

[2] = system: A2780 ovarian; experiment: Sulphorodamine B test at single concentration, A2780; format: cell-based; conditions: Homo sapiens, 500 nM, 72 h
Method: as §1, §2, §3, §4

[3] = system: U87MG glioblastoma; experiment: Sulphorodamine B test at single concentration, U87MG; format: cell-based; conditions: Homo sapiens, U-87 MG; 500 nM, 72 h
Method: as §1
(§5) MeWo and U87-MG cells were cultured in Eagle's Minimum Essential Medium (i.e., EMEM) containing 10% FBS, L-glutamine, 1 mM sodium pyruvate, 0.1 mM non-essential amino acids, 1.5 g/l sodium bicarbonate, and 50 μg/ml gentamycin sulphate.
as §2, §3, §4

[4] = system: HCT116 colon; experiment: Sulphorodamine B test at single concentration, HCT116; format: cell-based; conditions: Homo sapiens, HCT-116; 500 nM, 72 h
Method: as §1
HCT116 cells were cultured in McCoy's medium containing 10% FBS, L-glutamine, and 50 μg/ml gentamycin sulfate.
as §2, §3, §4

[5] = target: T1, Hsp90 (Homo sapiens, UniProt P07900); experiment: Fluorescence Polarization (FP) binding, GM-BODIPY displacement from Hsp90; conditions: GM-BODIPY tracer, 4° C. for 4 hours
T1 construct: purchased Stressgen SPP-776
Method: GM-BODIPY (PerkinElmer, CUSN60342000MG) was previously dissolved in DMSO to obtain 10 mM stock solutions and kept at −20° C. until use.
Hsp90 (Stressgen, SPP-776), was previously dissolved in assay buffer (HFB) to form 2.2 μM stock solutions and kept at −80° C. until use.
The compounds were previously dissolved in DMSO to obtain stock solutions and kept at −20° C. The day of experiment, the compounds were prepared by serial dilutions in assay buffer (HFB) containing 20 mM HEPES (K) pH 7.3, 50 mM KCl, 5 mM MgCl2, 20 mM Na2MoO4 and 0.01% NP40. Before each use, 0.1 mg/ml Bovine Gamma globulin and 2 mM DTT were freshly added.
Fluorescence Polarization (FP) was performed in Opti-Plate™-96F well plates (Perkin Elmer, Zaventem, Belgium) using a plate reader (Wallac Envision 2101 multilabel reader, Perkin Elmer, Zaventem, Belgium). To evaluate the binding affinity of the molecules, 50 μl of the GM-BODIPY solution (100 nM) were added to 125 nM of Hsp90 in the presence of 5 μl of the test compounds at increasing concentrations. The plate was mixed on a shaker at 4° C. for 4 hours, and the FP values in mP (millipolarization units) were recorded. The IC50 values were calculated as the inhibitor concentration where 50% of the tracer is displaced; each data point is the result of the average of triplicate wells, and was determined from a plot using nonlinear least-squares analysis. Curve fitting was performed using
Prism GraphPad software program (GraphPad software, Inc., San Diego, Calif.).

[6] = system: A431 epidermoid; experiment: Sulphorodamine B test at single concentration, A431; format: cell-based; conditions: Homo sapiens, A-431; 500 nM, 72 h
Method: as §1, §2, §3, §4

[7] = system: MiaPaCa2 pancreas; experiment: Sulphorodamine B test at single concentration, MiaPaCa2; format: cell-based; conditions: Homo sapiens, MIA PaCa-2; 500 nM, 72 h
Method: as §1
MiaPaCa2 cells were cultured in DMEM medium containing 10% FBS, L-glutamine, and 50 μg/ml gentamycin sulfate.
as §2, §3, §4

[8] = system: A498 renal; experiment: Sulphorodamine B test at single concentration, A498; format: cell-based; conditions: Homo sapiens, 500 nM, 72 h
Method: as §1, §2, §3, §4

[9] = system: NCI-H460 non-small cell lung carcinoma; experiment: Cytotoxicity assay, sulphorodamine B test, NCI-H460; format: cell-based; conditions: Homo sapiens, NCI-H460; 72 h, sulphorodamine B
Method: as §1, §2, §3

[10] = system: MeWo melanoma; experiment: Sulphorodamine B test at single concentration, MeWo; format: cell-based; conditions: Homo sapiens, 500 nM, 72 h
Method: as §1, §5, §2, §3, §4

[11] = system: HeLa cervix uteri; experiment: Sulphorodamine B test at single concentration, HeLa; format: cell-based; conditions: Homo sapiens, 500 nM, 72 h
Method: as §1, §2, §3, §4

[12] = system: MDA-MB436 triple-negative breast; experiment: Sulphorodamine B test at single concentration, MDA-MB436; format: cell-based; conditions: Homo sapiens, MDA-MB-436; 500 nM, 72 h
Method: as §1, §2, §3, §4

Compound	IC50 [5] [nM]	inhibition at 0.5 µM [1] [%]	inhibition at 0.5 µM [2] [%]	inhibition at 0.5 µM [3] [%]	inhibition at 0.5 µM [4] [%]	inhibition at 0.5 µM [6] [%]	inhibition at 0.5 µM [7] [%]	inhibition at 0.5 µM [8] [%]	IC50 [9] [nM]	inhibition at 0.5 µM [10] [%]	inhibition at 0.5 µM [11] [%]	inhibition at 0.5 µM [12] [%]
CCNC(=O)c1nnn(-c2cc(C(C)C)c(O)cc2O)c1-c1ccc(CNCCN(CC)CC)cc1 [Example 17, 5-{4-[(2-diethylamino-ethylamino)-methyl]-phenyl}-1-(2,4-dihydroxy-5-isopropyl-phenyl)-1H-[1,2,3]triazole-4-carboxylic acid ethylamide]	< 50	≥ 50	≥ 50	≥ 50	30 to 50	≥ 50	≥ 50	30 to 50	100 to 500	≥ 50	30 to 50	≥ 50
CCNC(=O)c1nnn(-c2cc(C(C)C)c(O)cc2O)c1-c1ccc(CN2CC[C@H](N(C)C)C2)cc1 [Example 20, 1-(2,4-dihydroxy-5-isopropyl-phenyl)-5-[4-((S)-3-dimethylamino-pyrrolidin-1-ylmethyl)-phenyl]-1H-[1,2,3]triazole-4-carboxylic acid ethylamide]	< 50	≥ 50	≥ 50	≥ 50	≥ 50	≥ 50	≥ 50	30 to 50	< 50	≥ 50	≥ 50	≥ 50

Continued, in another order:

IC50 [5] [nM]	Compound	inhibition at 0.5 µM [1] [%]	inhibition at 0.5 µM [2] [%]	inhibition at 0.5 µM [3] [%]	inhibition at 0.5 µM [4] [%]	inhibition at 0.5 µM [6] [%]	inhibition at 0.5 µM [7] [%]	inhibition at 0.5 µM [8] [%]	IC50 [9] [nM]	inhibition at 0.5 µM [10] [%]	inhibition at 0.5 µM [11] [%]	inhibition at 0.5 µM [12] [%]
< 50	CCCCCCNC(=O)c1nnn(-c2cc(C(C)C)c(O)cc2O)c1-c1ccc(CN2CCOCC2)cc1 [Example 27, 1-(2,4-dihydroxy-5-isopropyl-phenyl)-5-(4-morpholin-4-ylmethyl-phenyl)-1H-[1,2,3]triazole-4-carboxylic acid hexylamide]	≥ 50	≥ 50	≥ 50	≥ 50	≥ 50	≥ 50	≥ 50	< 50	≥ 50	≥ 50	≥ 50
< 50	CC(C)c1cc(-n2nnc(C(=O)NC3CCCC3)c2-c2ccc(CN3CCOCC3)cc2)c(O)cc1O [Example 28, 1-(2,4-dihydroxy-5-isopropyl-phenyl)-5-(4-morpholin-4-ylmethyl-phenyl)-1H-[1,2,3]triazole-4-carboxylic acid cyclopentylamide]	≥ 50	≥ 50	≥ 50	≥ 50	≥ 50	≥ 50	≥ 50	< 50	≥ 50	≥ 50	≥ 50
50 to 100	CC(C)c1cc(-n2nnc(C(=O)NC3CCCCC3)c2-c2ccc(CN3CCOCC3)cc2)c(O)cc1O [Example 29, 1-(2,4-dihydroxy-5-isopropyl-phenyl)-5-(4-morpholin-4-ylmethyl-phenyl)-1H-[1,2,3]triazole-4-carboxylic acid cyclohexylamide]	≥ 50	≥ 50	≥ 50	≥ 50	≥ 50	≥ 50	≥ 50	< 50	≥ 50	≥ 50	≥ 50

From patent publication US9302998B2, “Aryl triazole compounds with antitumoural activity” (SIGMA-TAU RESEARCH SWITZERLAND S.A., priority 2010, dated 2016)
